The source of these data is US20210139947A1, “METHOD FOR ASSESSING SUSCEPTIBILITY OF A VIRUS TO TREATMENT BY MEASURING ENZYME ACTIVITY AND A SYSTEM THEREFORE” (priority 2017, published 2021).

The structures appear in SMILES notation. Read-outs that look alike come from different tables or passages of the source.

Assay [1] relates to RT extracted from HIV-1 C Plasma Sa147 K103N, E138Q, Y318F, M184V. The assay is described as follows: Drug resistance indicator assay, remaining RT activity. The assay is classed as biochemical. The procedure: (§1) Isolation of HIV is performed in a separation plate, a 96 deep-well microplate (well volume 2 ml). The Viral Load assay is started by addition of 40 μl sample additive e.g 5,5′-dithiobis-(2-nitrobenzoic acid) to each well (see FIG. 2). Thereafter the patient plasmas and control samples are added. Sample additive is mixed with the plasma prior to isolation of HIV for inactivation of certain enzymes present in the plasma. After 20 minutes incubation, a slurry containing 1 μm magnetic polymeric beads, is added to the wells. The positively charged beads are used to capture the HIV particles. At low pH (e.g. 5.5) and appropriate salt concentration the negatively charged HIV particles bind to the beads while most of the other components present in plasma will not bind, e.g. the proteins (antibodies) and anti-retroviral drugs (ARVs). After an additional five minutes incubation, the microwell plate is transported to a magnetic plate. When exposed to the magnetic field from the magnetic plate, the beads will be trapped to the walls of the wells. The plasma can then be removed by aspiration using a pipette. The separation plate is then transported back to the shaker, away from the magnetic plate.
(§2) The wash procedure (see FIG. 3) starts by adding a first wash buffer, the Bead Wash Buffer, and the entire separation plate will be shaken during three minutes to resuspend the beads. After that, the separation plate is moved to the magnetic plate where the beads will be exposed to the magnetic field and trapped to the walls of the wells. Next, the wash buffer is aspirated. The separation plate is then transported back to the shaker, away from the magnetic plate. In the current example, this wash procedure is repeated three times with the Bead Wash Buffer (referred to as “Wash solution 1” in FIG. 3) and one time with the second wash buffer, the so called Bead Reconditioning Buffer (referred to as “Wash solution 2” in FIG. 3).
(§3) The reverse transcriptase (RT) is now to be extracted from the viral particles, which is illustrated in FIG. 4. The HIV particle is composed of a protein core surrounded by a lipid bilayer envelope that will break if it is exposed to certain detergents. Once the lipid bilayer envelope is dissolved, the protein core falls apart and the RT inside is released. When the last wash step is finalized, lysis buffer containing e. g. the detergent Synperonic A11 is added to the wells, in FIG. 4 referred to as “lysis buffer”. The virus envelope breaks and the reverse transcriptase, RT, is released. With the magnetic beads still bound to the walls of the wells, the lysate containing the released RT is collected by aspiration and used in the subsequent RT reaction step.

The subject of assay [2] is RT extracted from HIV-1 C Plasma Sa72 wild type. The description is as above. It counts as biochemical. As for the experimental part:
as §1, §2, §3

Assay [3] has as its target T1, SIV Recombinant RT SIVsmH4 (Simian immunodeficiency virus, UniProt P12502).
T1 construct: The recombinantly expressed and purified SIV RT was derived from the molecular clone pSIVsm/H4; made in house; host or cells: E. coli BL21 (DE3), vector pSRT.ET 11c
The description is as above. The settings on record: for remaining activity at 9 µM: EFV 9.0 μM. It counts as biochemical. As for the experimental part: The recombinantly expressed and purified SIV RT was derived from the molecular clone pSIVsm/H4. An expression vector pSRT.ET 11c was constructed and expression of SIV-RT in E. coli strain BL21 (DE3) in ordinary LB medium was carried out. The enzyme was purified in three chromatographic steps on a Heparin Sepharose CL-6B column, a Sepharose FF column and a Phenyl Sepharose CL-4B column.
(§4) The RT extracts recovered from this process and the other RT samples were analyzed for remaining activity according to above described drug resistance indicator assay.

Assay [4] has as its system FIV RT, Cell culture virus M2 CladB. Described as above. The assay is classed as biochemical. As for the experimental part:
as §4

For assay [5], the system named is 69SS + 5M Recombinant RT HXB2 M41L,T69S-SS, L210W, R211K, L214F, T215Y. Described as above. The note with it: EFV 9.0 μM.
Protocol: (§5) Drug reaction solution: A buffer identical to above mentioned RT Reaction solution with a defined concentration of an antiviral drug added.
(§6) Each lysate is split into two aliquots, one whereof is added to a well containing drug at a predetermined concentration, and one whereof is added to a well without added drug. Apart from the lysates, said HIV drug susceptibility reference samples are also included in the assay.
(§7) The virus susceptibility to treatment with the drug can be determined from the relation between the enzyme activities in the presence and in absence of the drug. This can be expressed as percent remaining RT activity, i.e. the quota between signal in presence of drug and signal in absence of drug times 100.
Assay [6] relates to 69SG + 5M Recombinant RT HXB2 M41L,T69S-SG, L210W, R211K, L214F, T215Y. Described as above. The settings on record: EFV 9.0 μM.
Protocol: as §5, §6, §7
In assay [7] the test system is HIV-2 RT, Cell culture virus CRF01_AB. Described as above. The settings on record: EFV 9.0 μM; HIV-2 CRF01_AB.
Protocol: as §5, §6, §7
For assay [8], the system named is JSRV RT, Cell culture virus UK strain. The assay is described as above. The note with it: EFV 9.0 μM.
Protocol: as §5, §6, §7
Assay [9] has as its target T2, MMTV Recombinant RT BR6 strain (Mouse mammary tumor virus, UniProt P03365).
T2 sequence (P03365 861-1436 limits assumed): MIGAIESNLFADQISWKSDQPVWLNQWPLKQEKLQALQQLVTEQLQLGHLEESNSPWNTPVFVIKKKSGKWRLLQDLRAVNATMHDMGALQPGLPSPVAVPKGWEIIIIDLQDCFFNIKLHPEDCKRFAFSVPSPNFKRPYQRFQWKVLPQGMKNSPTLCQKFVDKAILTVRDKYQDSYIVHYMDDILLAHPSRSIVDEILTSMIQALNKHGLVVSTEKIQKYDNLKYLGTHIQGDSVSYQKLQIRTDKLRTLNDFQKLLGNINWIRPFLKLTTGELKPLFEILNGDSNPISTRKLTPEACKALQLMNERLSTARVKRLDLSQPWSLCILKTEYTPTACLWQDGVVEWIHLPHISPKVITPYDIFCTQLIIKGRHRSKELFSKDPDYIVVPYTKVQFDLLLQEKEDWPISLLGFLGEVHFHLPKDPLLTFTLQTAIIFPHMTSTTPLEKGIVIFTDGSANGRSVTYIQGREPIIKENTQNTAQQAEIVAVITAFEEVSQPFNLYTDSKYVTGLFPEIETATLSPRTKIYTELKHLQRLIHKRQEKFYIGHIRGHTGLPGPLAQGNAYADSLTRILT
The assay is described as above.
Protocol: as §5, §6, §7

Assay [10] relates to BLV RT, Cell culture virus FLK-BLV cells. Described as above. The settings on record: EFV 9.0 μM.
Protocol: (This cell line is chronically infected by BLV).
as §5, §6, §7
Assay [11] deals with HTLV-1 RT, Cell culture virus MT-2 Cells. The assay is described as above. The note with it: EFV 9.0 μM.
Protocol: as §5
(§8) Each lysate is split into two aliquots, one whereof is added to a well containing drug at a predetermined concentration, and one whereof is added to a well without added drug.
as §7
The target of assay [12] is HTLV-2 RT, Cell culture virus (Human T-cell leukemia virus 2, UniProt P03363). Described as above.
Protocol: as §5, §8, §7
The subject of assay [13] is PERV RT, Cell culture virus PERV-PK15. The description is as above. The settings on record: EFV 9.0 μM, 6 mM Mn2+.
Protocol: Virus culture supernatant was cleared from cell debris by centrifugation, aliquoted and stored at −70° C. until use
as §5
All buffers used for analysis of γ-retroviruses RTs were supplemented with 6 mM Mn2+, but were otherwise identical to the buffers described above.
as §6, §7
Assay [14] has as its system Mammalian γ -polymerase, mithochondria, Beef Heart. The assay is described as follows: Drug resistance indicator assay, remaining polymerase activity. The settings on record: EFV 9.0 μM.
Protocol: as §5, §6, §7
Assay [15] deals with T3, HIV-1 B Recombinant RT BH10 wild type (Human immunodeficiency virus type 1 group M subtype B, UniProt P03366).
T3 construct: His-tag (C); made in house; host or cells: E. coli BL21 (DE3); plasmid purchased from Genescript
Briefly: biochemical. The note with it: read-out: Remaining activity (% of actvity in absence of drug). As for the experimental part: as §4

The target in assay [16] is HIV-1 B Recombinant RT HXB2 wild type (Human immunodeficiency virus type 1 group M subtype B, UniProt P04585). The assay is described as follows: biochemical. The note with it: read-out: Remaining activity (% of actvity in absence of drug). As for the experimental part: as §4

T1 sequence (P12502 598-1156 limits assumed): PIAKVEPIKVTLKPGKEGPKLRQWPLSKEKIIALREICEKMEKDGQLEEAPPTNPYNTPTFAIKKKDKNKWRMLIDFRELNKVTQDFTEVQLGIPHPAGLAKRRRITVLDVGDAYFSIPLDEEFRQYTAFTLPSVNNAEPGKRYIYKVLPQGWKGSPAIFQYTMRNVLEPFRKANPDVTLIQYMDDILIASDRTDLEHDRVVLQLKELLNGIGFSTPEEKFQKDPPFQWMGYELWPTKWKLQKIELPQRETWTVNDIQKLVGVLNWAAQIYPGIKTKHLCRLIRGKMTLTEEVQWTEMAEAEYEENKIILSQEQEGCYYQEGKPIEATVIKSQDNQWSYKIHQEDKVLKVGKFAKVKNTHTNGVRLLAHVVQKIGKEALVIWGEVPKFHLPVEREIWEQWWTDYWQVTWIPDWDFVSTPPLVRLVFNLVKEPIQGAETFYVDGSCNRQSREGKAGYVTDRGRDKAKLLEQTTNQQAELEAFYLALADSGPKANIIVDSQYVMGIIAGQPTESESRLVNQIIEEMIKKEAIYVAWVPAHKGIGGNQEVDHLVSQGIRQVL
Sequence of HTLV-2 RT, Cell culture virus (P03363 580-1166): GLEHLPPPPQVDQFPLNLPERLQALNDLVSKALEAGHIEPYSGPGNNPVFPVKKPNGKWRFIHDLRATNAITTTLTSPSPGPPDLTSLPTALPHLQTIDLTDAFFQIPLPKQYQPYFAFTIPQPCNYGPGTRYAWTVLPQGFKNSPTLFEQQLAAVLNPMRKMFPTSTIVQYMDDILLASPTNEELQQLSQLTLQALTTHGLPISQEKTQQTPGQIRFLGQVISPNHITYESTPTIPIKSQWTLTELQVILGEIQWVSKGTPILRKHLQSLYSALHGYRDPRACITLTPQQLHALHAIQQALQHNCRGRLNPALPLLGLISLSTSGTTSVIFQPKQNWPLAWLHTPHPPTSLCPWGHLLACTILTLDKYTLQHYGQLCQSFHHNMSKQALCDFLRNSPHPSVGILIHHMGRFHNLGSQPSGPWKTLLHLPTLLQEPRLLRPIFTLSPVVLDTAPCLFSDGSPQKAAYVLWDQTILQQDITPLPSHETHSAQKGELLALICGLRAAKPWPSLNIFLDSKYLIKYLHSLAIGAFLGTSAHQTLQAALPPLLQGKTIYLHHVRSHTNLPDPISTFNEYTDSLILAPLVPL

Consider `O=C1Nc2ccc(Cl)cc2[C@@](C#CC2CC2)(C(F)(F)F)O1` [EFV, (−)6-chloro-4-cyclopropylethynyl-4-trifluoromethyl-I,4-dihydro-2H-3,1-benzoxazin-2-one], for which the “Remaining activity (% of actvity in absence of drug)” value in [1] (EFV 9.0 μM) amounted to 87.8%; in assay [2] (EFV 9.0 μM), 8.3%; in assay [4] (EFV 9.0 μM), 93.6%. Besides, the remaining activity at 9 µM amounted to 99.9% in [3] (SIVsmH4, read-out: Remaining activity (% of actvity in absence of drug)); 103% in assay [3] (SIVsmH4, read-out: Remaining activity (%)); 102% in assay [9]; 91.7% in assay [12]. Moreover, the “Remaining activity (%)” value in assay [4] (EFV 9.0 μM) was found to be 93.6%; in assay [5], 3.5%; in [6], 3.9%; in assay [7] it was 100.2%; in [8], 102.7%; in [10] it was 101.7%. The “Remaining activity (%)” value amounted to 93.8% in assay [11], 98.0% in assay [13] and 94.8% in assay [14].
As for `Cc1cc(/C=C/C#N)cc(C)c1Nc1ccnc(Nc2ccc(C#N)cc2)n1` [RPV, 4-{[4-({4-[(1E)-2-cyanoeth-1-en-1-yl]-2,6-dimethylphenyl}amino)pyrimidin-2-yl]amino}benzonitrile], the remaining activity at 12 µM in assay [15] (RPV 12.0 μM, BH10 wild type) was 2.5%; in assay [16] (RPV 12.0 μM, HXB2 wild type), 2.4%; in assay [3] (RPV 12.0 μM, SIVsmH4, read-out: Remaining activity (% of actvity in absence of drug)), 108%. Also, the figures for the “Remaining activity (% of actvity in absence of drug)” value in assay [1] (RPV 12.0 μM), in assay [2] (RPV 12.0 μM) and in assay [4] (RPV 12.0 μM) were 80.8%, 9.3% and 86.1%, respectively.
With `Cc1ccnc2c1NC(=O)c1cccnc1N2C1CC1` [NPV, 11-cyclopropyl-5,11-dihydro-4-methyl-6H-dipyrido[3,2-b:2′,3′-f][1,4]diazepin-6-one], the remaining activity at 81 µM in assay [15] stood at 3.4%; in [16], 8.1%; in assay [3] (read-out: Remaining activity (% of actvity in absence of drug)), 99.5%. The “Remaining activity (% of actvity in absence of drug)” value was determined as 94.9% in assay [1] (NPV 81.0 μM), 16.1% in assay [2] (NPV 81.0 μM) and 87.7% in assay [4] (NPV 81.0 μM).
For `Cc1cc(C#N)cc(C)c1Oc1nc(Nc2ccc(C#N)cc2)nc(N)c1Br` [ETV, 4-({6-amino-5-bromo-2-[(4-cyanophenyl)amino]pyrimidin-4-yl}oxy)-3,5-dimethylbenzonitrile], the remaining activity at 21.8 µM in assay [15] turned out to be 3.5%; in assay [16] it was 2.8%; in [3] (ETV 21.8 μM, SIVsmH4, read-out: Remaining activity (% of actvity in absence of drug)), 98.5%. The “Remaining activity (% of actvity in absence of drug)” value in assay [1] (ETV 21.8 μM) is on record as 68.0%; in [2] (ETV 21.8 μM), 6.5%; in assay [4] (ETV 21.8 μM) it was 90.6%.

In general, remaining activity refers to the signal under treatment as a percentage of the control signal.
